In ChEMBL document CHEMBL1201862, “PubChem BioAssay data set” (2004):
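Briefly, cells in 96-well plates were exposed to five compound concentrations for 48 h, and endpoints were estimated by linear interpolation. GI50 marks 50% less growth.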 Active and inactive are the calls of the source. No stated cut-off is given here; in the data, active = GI50 up to about 1.1 µM and inactive = higher.

How the values were obtained:
Experiment in all cases: inhibition of tumour cell growth, NCI panel, 48 h
[1] = system: A498
[2] = system: ACHN
[3] = system: COLO 205
[4] = system: HL-60
[5] = system: IGROV-1
[6] = system: LOX IMVI
[7] = system: NCI-H522
[8] = system: RPMI-8226
[9] = system: SF-295
[10] = system: SK-OV-3
[11] = system: SN12C
[12] = system: SNB-19
[13] = system: SW-620
[14] = system: U-251
[15] = system: UACC-62
[16] = system: SR

Measured: GI50

CCc1ccccc1NC(=O)/C(=N/O)C(C)=O
inactive: [1] > 100 µM | [2] > 100 µM | [3] > 100 µM | [4] > 100 µM | [5] > 100 µM | [6] > 100 µM | [7] > 100 µM | [8] > 100 µM | [9] > 100 µM | [10] > 100 µM | [11] 96.8 µM | [12] > 100 µM | [13] > 100 µM | [14] > 100 µM | [15] > 100 µM

CC1CCCP(=O)(c2ccccc2)CCC1 (stereo not drawn)
inactive: [1] > 100 µM | [2] > 100 µM | [3] > 100 µM | [4] > 100 µM | [5] > 100 µM | [6] > 100 µM | [8] > 100 µM | [9] > 100 µM | [10] > 100 µM | [11] > 100 µM | [12] > 100 µM | [13] > 100 µM | [14] > 100 µM | [15] > 100 µM

O=C(Cc1nc2ccccc2s1)C(=O)Nc1cccc(Cl)c1
inactive: [1] > 100 µM | [2] > 100 µM | [3] > 100 µM | [4] > 100 µM | [5] > 100 µM | [6] > 100 µM | [7] > 100 µM | [8] > 100 µM | [9] > 100 µM | [10] > 100 µM | [11] > 100 µM | [12] > 100 µM | [13] > 100 µM | [14] > 100 µM | [15] > 100 µM

COc1cc(CCCC(O)COc2cccc3c2C2(O)CCCCCC32)cc(OC)c1 (stereo not drawn)
inactive: [1] 19.9 µM | [2] 15.7 µM | [3] 2.53 µM | [4] 22.2 µM | [5] 15.2 µM | [7] 24.9 µM | [8] 18.5 µM | [9] 16.5 µM | [10] 23.1 µM | [11] 17.2 µM | [12] 17.8 µM | [13] 17.2 µM | [14] 18.9 µM | [15] 16.4 µM

N#CC1(Cc2ccccc2[N+](=O)[O-])c2ccccc2C2C(N1C(=O)c1ccccc1)C2(Cl)Cl (stereo not drawn)
inactive: [1] 78 µM | [2] 13.2 µM | [3] > 100 µM | [5] > 100 µM | [6] > 100 µM | [7] > 100 µM | [9] > 100 µM | [10] > 100 µM | [11] > 100 µM | [12] > 100 µM | [13] > 100 µM | [14] > 100 µM | [15] > 100 µM

COc1cccc(NC(=O)CC(=O)N2NC(C)C(/N=N/c3cccc(C(=O)O)c3)C2=O)c1 (stereo not drawn)
inactive: [1] > 100 µM | [2] > 100 µM | [3] > 100 µM | [5] > 100 µM | [6] > 100 µM | [7] > 100 µM | [8] > 100 µM | [9] > 100 µM | [10] > 100 µM | [11] > 100 µM | [12] > 100 µM | [16] > 100 µM | [13] > 100 µM | [14] > 100 µM | [15] > 100 µM

Cc1nc2sccn2c1C(=O)NC(=O)Nc1ccc(Cl)cc1
inactive: [1] > 100 µM | [2] > 100 µM | [3] > 100 µM | [4] > 100 µM | [5] > 100 µM | [6] > 100 µM | [7] 57 µM | [8] > 100 µM | [9] 70.8 µM | [11] > 100 µM | [12] 42.2 µM | [13] > 100 µM | [14] 50.5 µM | [15] > 100 µM

CN(CN1C(=O)C2Cc3ccccc3CN2C1=O)c1ccccn1 (stereo not drawn)
inactive: [1] > 100 µM | [2] > 100 µM | [3] > 100 µM | [4] > 100 µM | [5] > 100 µM | [6] > 100 µM | [7] > 100 µM | [8] > 100 µM | [9] > 100 µM | [11] > 100 µM | [12] > 100 µM | [16] > 100 µM | [13] > 100 µM | [14] > 100 µM | [15] > 100 µM

CCOC(=N)CC(=O)NC(C)c1ccccc1 (stereo not drawn)
inactive: [1] > 100 µM | [2] > 100 µM | [3] > 100 µM | [4] > 100 µM | [5] > 100 µM | [6] > 100 µM | [7] > 100 µM | [9] > 100 µM | [10] > 100 µM | [11] > 100 µM | [12] > 100 µM | [16] > 100 µM | [13] > 100 µM | [14] > 100 µM | [15] > 100 µM

CC(=O)OCC1OC(OC2C(COC(C)=O)OC(Sc3ccccc3C)C(OC(C)=O)C2OC(C)=O)C(OC(C)=O)C(OC(C)=O)C1OC(C)=O (stereo not drawn)
inactive: [1] > 100 µM | [2] > 100 µM | [3] > 100 µM | [5] > 100 µM | [7] > 100 µM | [8] > 100 µM | [9] > 100 µM | [10] > 100 µM | [11] > 100 µM | [12] > 100 µM | [16] > 100 µM | [13] > 100 µM | [14] > 100 µM | [15] > 100 µM

N=C(c1ccccc1)N(c1ccccc1)c1ccccc1
inactive: [3] 19.2 µM | [4] 20.8 µM | [6] 18.2 µM | [7] 73.3 µM | [9] > 100 µM | [11] 22.5 µM | [12] > 100 µM | [16] 30.7 µM | [13] > 100 µM | [14] > 100 µM

CCOC(=O)/C(C(C)=O)=C1/N[C@H](C(=O)OCC)CS1
inactive: [2] > 100 µM | [3] > 100 µM | [4] > 100 µM | [5] > 100 µM | [6] > 100 µM | [7] > 100 µM | [8] > 100 µM | [9] > 100 µM | [11] > 100 µM | [12] > 100 µM | [16] > 100 µM | [13] > 100 µM | [14] > 100 µM | [15] > 100 µM

CC(=O)O[C@@]1(C)[C@@H](C)C(=O)O[C@@H]2CCN3CC=C(COC(=O)[C@]1(C)O)[C@H]23
inactive: [2] > 100 µM | [3] > 100 µM | [4] > 100 µM | [5] > 100 µM | [7] > 100 µM | [8] > 100 µM | [9] > 10 µM | [12] > 100 µM | [16] > 100 µM | [13] > 100 µM | [14] > 100 µM | [15] > 100 µM

O=CC1=CCCC2(C1)OCCO2
inactive: [1] > 100 µM | [3] > 100 µM | [4] > 100 µM | [5] > 100 µM | [6] > 100 µM | [7] > 100 µM | [8] > 100 µM | [9] > 100 µM | [10] > 100 µM | [11] > 100 µM | [12] > 100 µM | [13] > 100 µM | [14] > 100 µM | [15] > 100 µM

CC1(C)N=C(c2ccccn2)C(c2ccccn2)=NC1(C)C
inactive: [1] > 100 µM | [2] > 100 µM | [3] > 100 µM | [4] > 100 µM | [5] > 100 µM | [6] > 100 µM | [8] > 100 µM | [9] > 100 µM | [11] > 100 µM | [12] > 100 µM | [16] > 100 µM | [13] > 100 µM | [14] > 100 µM | [15] > 100 µM

CCOC(=N)CC(=O)Nc1cccc(Cl)c1
inactive: [1] > 100 µM | [2] > 100 µM | [3] > 100 µM | [4] > 100 µM | [5] > 100 µM | [6] > 100 µM | [7] > 100 µM | [9] > 100 µM | [10] > 100 µM | [11] 51.2 µM | [12] > 100 µM | [16] > 100 µM | [13] > 100 µM | [14] > 100 µM | [15] > 100 µM

NC(=O)C(c1ccccc1)N1CCOCC1 (stereo not drawn)
inactive: [1] > 100 µM | [2] > 100 µM | [3] > 100 µM | [4] > 100 µM | [5] > 100 µM | [6] > 100 µM | [7] > 100 µM | [8] > 100 µM | [9] > 100 µM | [10] > 100 µM | [11] > 100 µM | [16] > 100 µM | [13] > 100 µM | [14] > 100 µM | [15] > 100 µM

CC1=C(C(=O)Nc2ccccc2C)C(c2ccccc2)C(C(=O)Nc2ccccc2C)=C(C)N1
inactive: [1] 29.7 µM | [2] 26.3 µM | [3] 24.1 µM | [4] 15.2 µM | [5] 42.7 µM | [6] 16 µM | [7] 28.6 µM | [9] 36.5 µM | [10] > 100 µM | [11] 56.6 µM | [12] 45.8 µM | [16] 11.7 µM | [13] 30.5 µM | [14] 37.2 µM | [15] 27.1 µM

COC(=O)[C@]12CCC(C)[C@H](C)[C@H]1C1=CCC3[C@@]4(C)CC[C@H](OC(C)=O)C(C)(C)C4CC[C@@]3(C)C1(C)C(O)C2 (stereo partly drawn)
inactive: [1] > 100 µM | [2] > 100 µM | [3] > 100 µM | [5] > 100 µM | [6] 74 µM | [7] > 100 µM | [8] 53.7 µM | [9] > 100 µM | [10] > 100 µM | [11] > 100 µM | [12] > 100 µM | [16] > 100 µM | [13] > 100 µM | [14] > 100 µM | [15] > 100 µM
